Experimental data as given in publication PMC10545732, “Structure-based drug discovery of a corticotropin-releasing hormone receptor 1 antagonist using an X-ray free-electron laser” (Experimental & Molecular Medicine, 2023).
Entries after “also recorded” stand apart in the source; their conditions may differ.

Columns and labels:
[1] = Microsomal stability assay, human liver microsomes; type: in vitro ADME; details: for Liver microsomal stability, Human (percentage remaining after 30 min): 1 μM, n = 3; for metabolic stability improved by: human and rat liver microsomes, 30 min
Experimental: LC‒MS/MS was performed on a TSQ Vantage (Thermo, USA) coupled with a Nexera XR LC system (Shimadzu, Japan)[32]. The separation was performed on a Kinetex C18 column (2.1 × 100 mm, 2.6 µm, Phenomenex, USA) using a mobile phase of 0.1% formic acid and acetonitrile containing 0.1% formic acid. A gradient program was used for elution at a flow rate of 0.3 mL/min. The data were acquired using multiple-reaction monitoring (MRM) in positive mode.

[2] = Microsomal stability assay, rat liver microsomes; type: in vitro ADME; details: 1 μM, n = 3
Experimental: The incubation mixtures consisted of 0.5 mg/mL human (Corning, #452117) and rat liver microsomes (Corning, #452701), 0.1 M phosphate buffer (pH 7.4), NADPH regeneration system, and substrates (CRF1R antagonist compounds, 1 µM) in a total volume of 100 μL. […] LC‒MS/MS was performed on a TSQ Vantage (Thermo, USA) coupled with a Nexera XR LC system (Shimadzu, Japan)[32]. The separation was performed on a Kinetex C18 column (2.1 × 100 mm, 2.6 µm, Phenomenex, USA) using a mobile phase of 0.1% formic acid and acetonitrile containing 0.1% formic acid. A gradient program was used for elution at a flow rate of 0.3 mL/min. The data were acquired using multiple-reaction monitoring (MRM) in positive mode. Detection of the ions was performed by monitoring the m/z transition of 494.1 → 336.1 for BMK-I-152, 598.1 → 233.2 for BMK-C203, and 488.1 → 434.1 for BMK-C205.

CYP1A2 = target: T1, CYP1A2 (Homo sapiens, UniProt P05177); assay: CYP inhibition assay CYP1A2 (phenacetin O-demethylase); type: in vitro ADME; details: 10 μM, human liver microsomes, n = 3
T1 construct: 0.25 mg/mL human liver microsomes; from tissue; host or cells: human liver microsomes
T1 sequence (P05177 1-516): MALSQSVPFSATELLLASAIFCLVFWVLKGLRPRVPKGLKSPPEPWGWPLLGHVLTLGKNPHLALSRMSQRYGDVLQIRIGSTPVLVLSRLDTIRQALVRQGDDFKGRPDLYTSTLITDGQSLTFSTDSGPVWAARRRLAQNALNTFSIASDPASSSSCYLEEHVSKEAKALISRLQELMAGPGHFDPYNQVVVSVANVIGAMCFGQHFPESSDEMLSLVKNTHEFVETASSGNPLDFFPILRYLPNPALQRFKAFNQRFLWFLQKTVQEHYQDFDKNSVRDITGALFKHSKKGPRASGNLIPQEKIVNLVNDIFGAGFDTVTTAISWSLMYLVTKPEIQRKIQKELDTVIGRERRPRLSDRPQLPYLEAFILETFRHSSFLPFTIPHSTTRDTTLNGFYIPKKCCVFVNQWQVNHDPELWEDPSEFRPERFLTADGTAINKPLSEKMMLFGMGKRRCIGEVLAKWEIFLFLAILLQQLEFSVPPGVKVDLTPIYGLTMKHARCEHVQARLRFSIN
Experimental: (§1) Phenacetin O-demethylase, diclofenac 4-hydroxylase, S-mephenytoin 4-hydroxylase, dextromethorphan O-demethylase, and midazolam 1’-hydroxylase activities were determined as probe activities for CYP1A2, CYP2C9, CYP2C19, CYP2D6, and CYP3A4, respectively, using cocktail incubation. […] The cocktail incubation mixtures consisted of 0.25 mg/mL human liver microsomes, 0.1 M phosphate buffer (pH 7.4), an NADPH regeneration system, and inhibitors (CRF1R antagonist compounds, 10 µM) in a total volume of 100 μL. The final volume of the organic solvents in the incubation mixture was 1% (v/v). […] All incubations were performed in triplicate, and the mean values were used for analysis. The samples were then centrifuged at 15,000 rpm for 5 min at 4 °C. […] The CYP-mediated activities in the presence of inhibitors were expressed as percentages of the corresponding control values.

CYP2C19 = target: T2, CYP2C19 (Homo sapiens, UniProt P33261); assay: CYP inhibition assay CYP2C19 (S-mephenytoin 4-hydroxylase); type: in vitro ADME; details: 10 μM, human liver microsomes, n = 3
T2 construct: 0.25 mg/mL human liver microsomes; from tissue; host or cells: human liver microsomes
Experimental: as §1

C57BL/6J mice = assay: Open field test (OFT); type: in vivo; details: 30 mg/kg orally for 3 days, 1 h open field
Experimental: C57BL/6J mice (male, 9–10 weeks old) were used for the behavioral tests. All mice were maintained under a 12:12-h light–dark cycle (lights on at 7:00 A.M.) with access to food and water ad libitum. Animal care and handling were performed according to guidelines by the Institutional Animal Care and Use Committee of Yonsei University (Seoul, Korea). Antalarmin, BMK-C203, and BMK-C205 were dissolved in peceol: TPGS: PEG400 (vehicle) (70%:20%:10%, respectively) and administered orally at a dose of 30 mg/kg for 3 days at 24-h intervals. All behavioral tests were conducted 2 h after the third drug was administered during light periods of the circadian cycle. TSTs were performed to verify the effect of CRF1R antagonists on depressive-like behavior. Each mouse was suspended by its tail on a bar 30 cm above the ground for 6 min using adhesive tape. Their movements were recorded by a camera and analyzed using the same parameters via EthoVision XT 8.5 software (Noldus Technologies). Immobility times during the last 4 min of the task were measured. Each mouse was placed in an open field (40 cm × 40 cm × 40 cm chamber) for 1 h to conduct an open field test (OFT) and test locomotion. Their locomotion was recorded and analyzed using EthoVision XT 8.5.

[3] = In vitro BBB permeability assay; type: in vitro ADME, human; details: human; 10 μM apical, 12-h incubation, hCMEC/D3 monolayer; read-out: permeability coefficient
Experimental: Human cerebral microvascular endothelial cells (hCMECs/D3, SCC066; Sigma-Aldrich) were used to assess the permeability of CRF1R antagonists across the BBB. hCMECs were seeded on Falcon^TM cell culture inserts (08-770, Fisher Scientific) with 0.4 μm pore sizes precoated with collagen type I from rat tails (354236, Corning) at a density of 50,000 cells/mL in endothelial cell growth medium-2 (EGM-2, CC-3162; Lonza). The medium was changed with EGM-2 every three to four days for proliferation and with EGM-2 containing 2.5% human serum (SLBX6020, Sigma-Aldrich) for differentiation. Cell culture inserts were transferred into 24-well plates containing 700 μL of EGM-2 in each well (basolateral compartment) for the permeability assay. The medium in the inserts (apical compartment) was then replaced with 300 μL EGM-2 containing 10 μM BMK-C203 or BMK-C205. Apical and basolateral compartments were collected after a 12-h incubation at 37 °C, and drug concentrations were measured using HPLC. For sample preparation, 50 μL of the sample was mixed with 10 μL of an internal standard solution (d4-cortisol). Subsequently, 50 μL of acetonitrile was added, and the mixture was centrifuged at 16,000×g for 10 min for protein precipitation. The supernatants were used for LC‒MS analysis with a triple quadrupole mass spectrometer coupled with HPLC using a C18 reversed-phase column. The concentration of the antagonists was determined using a calibration curve. The permeability coefficient (P) was calculated according to Pardridge et al.[34]. The permeability-surface area product (PS, in cm^3/s) was divided by the filter surface area A (in cm^2) using Eq. (1) as follows:1 Pcm/s=Vd×△Ma/A×[…]×△t where Vd is the volume in the donor compartment in cm^3, ΔMa is the total amount of the compound in the […] compartment after t seconds, Md is the donor amount, Δt is the incubation time, and A is the filter area in cm^2.

T2 sequence (P33261 whole entry): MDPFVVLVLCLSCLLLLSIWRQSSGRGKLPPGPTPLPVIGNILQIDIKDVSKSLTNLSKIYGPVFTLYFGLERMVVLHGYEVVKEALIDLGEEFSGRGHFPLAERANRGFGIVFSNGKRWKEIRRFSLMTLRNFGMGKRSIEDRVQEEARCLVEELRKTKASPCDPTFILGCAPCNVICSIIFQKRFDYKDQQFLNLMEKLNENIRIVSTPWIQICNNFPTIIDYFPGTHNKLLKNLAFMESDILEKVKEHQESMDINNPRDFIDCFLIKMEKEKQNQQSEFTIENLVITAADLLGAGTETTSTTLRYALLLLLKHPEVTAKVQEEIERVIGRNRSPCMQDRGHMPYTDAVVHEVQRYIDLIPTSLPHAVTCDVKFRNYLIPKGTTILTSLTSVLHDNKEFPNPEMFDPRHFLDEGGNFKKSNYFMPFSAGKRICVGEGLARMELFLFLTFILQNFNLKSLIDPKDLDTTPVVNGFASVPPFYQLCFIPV

Liver microsomal stability, Human (percentage remaining after 30 min) [1] | metabolic stability improved by [1] | Liver microsomal stability, Rat (percentage remaining after 30 min) [2] | Papp at 12 h, 10 µM [3] | SMILES | CYP1A2, percentage of control activity (CYP1A2) | CYP2C19, percentage of control activity (CYP2C19) | OFT locomotion / overall moving distance (C57BL/6J mice)
88.3 ± 16.71% | more than 90% | 97.1 ± 8.81% | 0.0296 ×10⁻⁶ cm/s | COc1cc(Br)cc(OC)c1-c1c(C)nn2c(N(CCCC(F)(F)F)CCCC(F)(F)F)nc(C)nc12 [BMK-C203] | 95.6 ± 2.9 percentage of control activity | 83.2 ± 0.5 percentage of control activity | did not differ among groups
88.0 ± 4.50% | more than 90% | 89.4 ± 2.07% | 0.211 ×10⁻⁶ cm/s | CCCCN(CC1CC1)c1nc(C)nc2c(-c3c(OC)cc(Br)cc3OC)c(C)nn12 [BMK-C205] | > 100 ± 4.2 percentage of control activity | 89.7 ± 3.8 percentage of control activity | did not differ among groups; also recorded: no differences
